{"source": "patent US5858978A", "about": "“Pharmaceutical compositions containing calcitonin gene-related peptide (CGRP) and use thereof to ameliorate hyperimmune mediated diseases and abnormal conditions” (Yale University, priority 1997, dated 1999)", "key": {"[1]": {"tested_on": "giant cells (fused alveolar macrophages)", "experiment": "IL-1 release by giant cells (fused alveolar macrophages), IL-1 bioassay of supernatants", "assay_type": "cell-based, rat", "settings": "added to release medium on day 3, 24 hour release", "description": "(§1) Rat alveolar and peritoneal macrophages were obtained from 12 week old Fisher 344 rats (Charles River, Kingston, N.Y.). Alveolar macrophages were collected by tracheobronchial lavage as previously described (Vignery et al., J. Histochem Cytochem. , 1989). Peritoneal macrophages were collected from the same rats prior to the lung lavage. The collected cells were: (i) washed twice in Minimum Essential Medium with Earle's salts (MEME) supplemented with 2 mM L-glutamine and vitamins; (ii) plated in 6 well dishes at 10^7 cells/ml, 10^6 cells per well, in MEME containing 10% heat inactivated human serum (HS); (iii) incubated for 20 minutes at 37° C. in 5% CO2, 95% air to let the macrophages adhere; (iv) subsequently grown at 10^6 cells/ml of MEME containing 5% heat inactivated HS. Cells were cultured in FCS for the IL-6 bioassay. All tissue culture reagents were purchased from Gibco Laboratories, Grand Island, N.Y. The adherent cell populations were composed of 99% macrophages and a few occasional polymorphonuclear cells as determined by Wright stain.\n(§2) To estimate the release of IL-1 and IL-6 by peritoneal macrophages and fused alveolar macrophages, the cells were collected and cultured as described above. Prior to perform the release, the cells were washed twice with warm MEME and subsequently incubated for 24 hours in 1 ml of MEME supplemented with 5% of HS or FCS, with or without agonist. At the termination of the release, the supernatant were collected, spun at 400 g for 10 minutes, transferred to microfuge tubes and stored at -20° C. until assayed. Macrophages remained adherent and viable in all experiments as determined by DNA measurements and trypan blue exclusion.\nIL-1 activity in the macrophage supernatants was measured according to Gillis and Mizel (Proc. Natl. Acad. Sci., USA, 1981, 78:1133-1137). LBRM-33 cells, clones 1A5 and 5A4 (ATCC, Rockville, Md.) were stimulated with either PHA (Gibco), rm IL-1β or log2 dilutions of the macrophage supernatants. […] After 24 hours, the cells were exposed to 0.5 μCi[^3 H]dThd (20 mCi/mmol, New England Nuclear) for an additional 4 hours after which the cultures were harvested onto glass fiber filter strips with the aid of a multiple automated sample harvester (MASH 11, Microbiological Associates, Bethesda, Md.) [^3 H]dThd incorporation was determined by direct counting.\nWhen peritoneal macrophages from the same animals are grown in these conditions, they remain mononucleated and can therefore be used as a nonfusing control population. It was previously confirmed that giant cells differentiate in vitro by actual cell-cell fusion since DNA synthesis cannot be detected and that the total amount of DNA remains constant during culture in both alveolar and peritoneal macrophages. […]"}, "peritoneal macrophages [2]": {"tested_on": "peritoneal macrophages", "experiment": "IL-1 release by peritoneal macrophages (IL-1 bioassay of supernatants)", "assay_type": "cell-based, rat", "settings": "for IL-1 activity detected in peritoneal macrophage supernatants: added to release medium on day 3, 24 hour release", "description": "as §1, §2\n(§3) IL-1 activity in the macrophage supernatants was measured according to Gillis and Mizel (Proc. Natl. Acad. Sci., USA, 1981, 78:1133-1137). LBRM-33 cells, clones 1A5 and 5A4 (ATCC, Rockville, Md.) were stimulated with either PHA (Gibco), rm IL-1β or log2 dilutions of the macrophage supernatants. LBRM-33 lymphocyte supernatants were harvested from 24 hour cultures and subsequently tested for IL-2 activity using a standard microassay, Gillis et al. (J. Immunol., 1978, 120:2027-2032), based on the IL-2 dependent exponential proliferation of a murine cytotoxic T-cell line CTLL (ATCC, Rockville, Md.), Gillis and Smith (Nature (London), 1977, 268:154-156). CTLL cells were cultured in the presence of a log2 dilution series of putative IL-2 containing samples. After 24 hours, the cells were exposed to 0.5 μCi[^3 H]dThd (20 mCi/mmol, New England Nuclear) for an additional 4 hours after which the cultures were harvested onto glass fiber filter strips with the aid of a multiple automated sample harvester (MASH 11, Microbiological Associates, Bethesda, Md.) [^3 H]dThd incorporation was determined by direct counting."}, "[3]": {"tested_on": "peritoneal macrophages and giant cells", "experiment": "IL-6 release by peritoneal and fused alveolar macrophages (IL-6 bioassay, B13.29 subclone B9)", "assay_type": "cell-based, rat", "description": "as §1, §2\nFive thousand,B13.29 cells subclone B9 (donated by Dr. Thomas Kupper, Washington University of School of Medicine, Washington, Mo.) were cultured in the presence of a log2 dilution series of macrophage supernatants or standard dilutions of rmIL-6 according to Aarden, L. A. ( Eur. J. Immunol., 1987, 17:1411-1416). […]"}, "[4]": {"tested_on": "giant cells (fused alveolar macrophages)", "experiment": "Generation of intracellular cAMP in giant cells (fused alveolar macrophages), radioimmunoassay", "assay_type": "cell-based, rat", "description": "as §1\n(§4) For cAMP studies, cells were grown under the conditions described above but using either 24 or 96 well dishes. Each well contained either 2×10^5 or 5×10^4 cells grown in 800 or 200 μl, respectively. The cells were first washed with warm MEME and subsequently incubated at 37° C. in MEME supplemented with BSA (1 mg/ml) (Sigma Chemical, St. Louis, Mo.) either in the absence or presence of Salmon Calcitonin (sCT) (kindly provided by Dr. Orlowski, Rorer Central Research, Horsham, Pa.), rat calcitonin gene-related peptide (CGRP) (Bachem, Inc., Torrance, Calif.) and 3-isobutyl-1-methylxanthine (IBMX)(Sigma) for the indicated times. Incubations were terminated by aspirating the medium and adding 100 μl of 0.4% perchloric acid to each well. Perchloric acid extracts were neutralized with 1.5M KOH and stored at -20° C. These samples were acetylated and cAMP measured by radioimmunoassay using succinylated ^125 I-labeled cARP (Biomedical Technologies, Inc., Stoughton, Ma.). Results were expressed as fentomoles of CAMP per well. Experiments were performed in duplicates or triplicates and repeated at least 3 times.\nWhen peritoneal macrophages from the same animals are grown in these conditions, they remain mononucleated and can therefore be used as a nonfusing control population. It was previously confirmed that giant cells differentiate in vitro by actual cell-cell fusion since DNA synthesis cannot be detected and that the total amount of DNA remains constant during culture in both alveolar and peritoneal macrophages. Therefore, the actual number of alveolar macrophages is decreased drastically by day 4 when each giant cell contains hundreds of nuclei. The important point is that the total number of nuclei remains constant so that we refer to giant cells and peritoneal macrophages as such or else as number of plated cells."}, "peritoneal macrophages [5]": {"tested_on": "peritoneal macrophages", "experiment": "Generation of intracellular cAMP in peritoneal macrophages (radioimmunoassay)", "assay_type": "cell-based, rat", "settings": "for cAMP accumulation in peritoneal macrophages: all time points examined", "description": "as §1, §4"}, "macrophages": {"tested_on": "macrophages", "settings": "cited from earlier work"}, "[6]": {"tested_on": "chronic rheumatoid arthritis", "experiment": "Treatment of chronic rheumatoid arthritis in a human being", "assay_type": "in vivo", "settings": "I.M. administration of 0.5 mg every 24 hours until relief"}, "CTLL cells": {"tested_on": "CTLL cells", "experiment": "IL-2 dependent proliferation of CTLL cells treated directly", "assay_type": "cell-based, murine", "settings": "in the presence of IL-2", "description": "as §3"}, "LBRM-33 cells": {"tested_on": "LBRM-33 cells", "experiment": "IL-1 bioassay with CGRP added to IL-1 containing medium (LBRM-33 cells, CTLL readout)", "assay_type": "cell-based, murine", "description": "as §3"}}, "note": "Like-named read-outs stand apart in the source and are kept apart here."}
{"compound": "C=C[C@@]1(C)CC(=O)[C@]2(O)[C@@]3(C)[C@@H](O)CCC(C)(C)[C@@H]3[C@H](O)[C@H](OC(C)=O)[C@@]2(C)O1", "note": "[forskolin]", "values": [{"measurement": "IL-1 activity detected in giant cell supernatants", "setting": "[1]", "result": "as effective as CGRP in blocking the secretion of IL-1"}, {"measurement": "IL-1 activity detected in peritoneal macrophage supernatants", "setting": "peritoneal macrophages [2]", "result": "as effective as CGRP in blocking the secretion of IL-1"}]}
{"compound": "C=C1/C(=C\\C=C2/CCC[C@]3(C)[C@@H]([C@H](C)CCCC(C)(C)O)CC[C@@H]23)C[C@@H](O)C[C@@H]1O", "note": "[1,25(OH)2 -vitamin D3]", "values": [{"measurement": "IL-1 activity detected in giant cell supernatants", "setting": "[1]", "result": "fail to respond"}, {"measurement": "IL-1 activity detected in peritoneal macrophage supernatants", "setting": "peritoneal macrophages [2]", "result": "stimulated the proliferation of CTLL cells, and probably IL-1 release"}, {"measurement": "IL-6 activity level in macrophage supernatants", "setting": "[3]", "result": "neither CGRP nor 1,25(OH)2 -vitamin D3 appear to significantly alter this process"}]}
{"compound": "CC(C)Cn1c(=O)n(C)c(=O)c2[nH]cnc21", "note": "[IBMX, 3-isobutyl-1-methylxanthine]", "values": [{"measurement": "cAMP accumulation in giant cells", "setting": "[4]; fused alveolar macrophages, any time point measured", "result": "not able at any time point measured to induce a cAMP accumulation"}, {"measurement": "cAMP accumulation in peritoneal macrophages", "setting": "peritoneal macrophages [5]", "result": "not able at any time point measured to induce a cAMP accumulation"}]}
{"compound": "Rat Calcitonin Gene-Related Peptide [CGRP]", "values": [{"measurement": "half maximal concentration of cAMP", "setting": "[4]; fused alveolar macrophages, 2 minutes incubation in the presence of IBMX", "result": "300 fmoles per 5×10^4 plated cells"}, {"measurement": "EC50", "setting": "[4]; fused alveolar macrophages, 2 minutes incubation in the presence of IBMX, read-out: concentration giving half maximal concentration of cAMP", "result": 2, "unit": "nM"}, {"measurement": "cAMP accumulation compared with CT", "setting": "[4]; macrophages, comparison CGRP vs CT", "result": "larger accumulation of cAMP in macrophages than CT"}, {"measurement": "IL-1 activity detected in giant cell supernatants", "setting": "[1]", "result": "prevented the release of IL-1 by both cell types"}, {"measurement": "ability of macrophages to act as APC", "setting": "macrophages", "result": "profoundly inhibit"}, {"measurement": "ability of macrophages to produce H2O2 in response to IFN", "setting": "macrophages", "result": "profoundly inhibit"}, {"measurement": "half maximal concentration of cAMP", "setting": "peritoneal macrophages [5]; peritoneal macrophages, 2 minutes incubation in the presence of IBMX", "result": "80 fmoles per 5×10^4 plated cells"}, {"measurement": "EC50", "setting": "peritoneal macrophages [5]; peritoneal macrophages, 2 minutes incubation in the presence of IBMX, read-out: concentration giving half maximal concentration of cAMP", "result": 2, "unit": "nM"}, {"measurement": "symptoms of the disease, e.g. pain and swelling of the affected joints", "setting": "[6]", "result": "amelioration of the symptoms of the disease"}, {"measurement": "proliferation of CTLL cells", "setting": "CTLL cells", "result": "did not prevent significantly their proliferation"}, {"measurement": "IL-1 bioactivity in supernatants of vitamin D3 stimulated peritoneal macrophages", "setting": "peritoneal macrophages [2]; 1,25(OH)2-vitamin D3 stimulated peritoneal macrophages", "result": "reduce significantly"}, {"measurement": "IL-1 activity detected in peritoneal macrophage supernatants", "setting": "peritoneal macrophages [2]", "result": "prevented the release of IL-1 by both cell types"}, {"measurement": "IL-6 activity level in macrophage supernatants", "setting": "[3]", "result": "neither sCT nor CGRP treatment of the cells modified this level"}, {"measurement": "proliferative response of CTLL cytotoxic T cells in the IL-1 bioassay", "setting": "LBRM-33 cells", "result": "prevents the proliferative response"}]}
{"compound": "CC(C)C[C@H](NC(=O)[C@H](CCCCN)NC(=O)CNC(=O)[C@H](CC(C)C)NC(=O)[C@@H](NC(=O)[C@@H]1CSSC[C@H](N)C(=O)N[C@@H](CO)C(=O)N[C@@H](CC(N)=O)C(=O)N[C@@H](CC(C)C)C(=O)N[C@@H](CO)C(=O)N[C@@H]([C@@H](C)O)C(=O)N1)C(C)C)C(=O)N[C@@H](CO)C(=O)N[C@@H](CCC(N)=O)C(=O)N[C@@H](CCC(=O)O)C(=O)N[C@@H](CC(C)C)C(=O)N[C@@H](Cc1c[nH]cn1)C(=O)N[C@@H](CCCCN)C(=O)N[C@@H](CC(C)C)C(=O)N[C@@H](CCC(N)=O)C(=O)N[C@H](C(=O)N[C@@H](Cc1ccc(O)cc1)C(=O)N1CCC[C@H]1C(=O)N[C@@H](CCCNC(=N)N)C(=O)N[C@H](C(=O)N[C@@H](CC(N)=O)C(=O)N[C@H](C(=O)NCC(=O)N[C@@H](CO)C(=O)NCC(=O)N[C@H](C(=O)N1CCC[C@H]1C(N)=O)[C@@H](C)O)[C@@H](C)O)[C@@H](C)O)[C@@H](C)O", "note": "[sCT, Salmon Calcitonin]", "values": [{"measurement": "time of peak of cAMP accumulation after addition of the peptide", "setting": "[4]; fused alveolar macrophages, absence of IBMX", "result": 5, "unit": "min"}, {"measurement": "lag time to cAMP accumulation", "setting": "[4]; fused alveolar macrophages, with 10 μM IBMX", "result": 2, "unit": "min"}, {"measurement": "time at which cAMP returned to basal level", "setting": "[4]; giant cells, absence of IBMX", "result": 15, "unit": "min"}, {"measurement": "time at which cAMP returned to basal level", "setting": "[4]; giant cells, presence of IBMX", "result": 30, "unit": "min"}, {"measurement": "half maximal cAMP accumulation", "setting": "[4]; giant cells, sCT dose response", "result": "50 fmoles per 6.4×10^4 plated cells"}, {"measurement": "EC50", "setting": "[4]; giant cells, sCT dose response, read-out: concentration for half maximal stimulation of cAMP accumulation", "result": 2, "unit": "nM"}, {"measurement": "IL-1 activity detected in giant cell supernatants", "setting": "[1]", "result": "reduced significantly"}, {"measurement": "cAMP accumulation in peritoneal macrophages", "setting": "peritoneal macrophages [5]", "result": "failed to induce a response"}, {"measurement": "IL-6 activity level in macrophage supernatants", "setting": "[3]", "result": "neither sCT nor CGRP treatment of the cells modified this level"}]}
{"compound": "calcitonin [CT]", "values": [{"measurement": "macrophage activation", "setting": "macrophages", "result": "prevented macrophage activation"}]}
